Experimental data taken from patent publication US11865098B1, “Methods and compositions for treating excessive sleepiness” (Axsome Malta Ltd., priority 2017, dated 2024).

Test system: patients with narcolepsy type 1 or type 2
Assay: MWT, 12-week phase 3 study in narcolepsy
Assay type: in vivo, human
Conditions: mITT
Protocol: The MWT is an objective test used to measure how alert a subject is during the day. The test consists of four sleep trials with two hours in between the trials. The first trial is performed 1.5-3 hours after the subject's normal wake-up time. Sensors are placed on the head, face, and chin to detect when the subject is asleep and awake during the test. The subject sits quietly in bed with his or her back and head supported by a pillow and is asked to sit still and look straight ahead while trying to stay awake as long as possible. Each trial lasts 40 minutes or until the subject is asleep for 90 seconds. Between trials, the subject stays out of bed and occupies himself or herself to remain awake. Falling asleep in an average of less than eight minutes is considered abnormal. About 40-60% of subjects with normal sleep stay awake for the entire 40 minutes of all four trials.
The study was a 12-week, double-blind, randomized, placebo-controlled, parallel-group study. Patients were randomized (1:1:1:1) to receive placebo or APC 75, 150, or 300 mg; randomization was stratified by the presence or absence of cataplexy.
Key inclusion criteria included adults 18-75 years old, inclusive, with a diagnosis of narcolepsy type 1 or type 2 according to ICSD-3 (American Academy of Sleep Medicine. The International Classification of Sleep Disorders—Third Edition (ICSD-3). Darien, IL: American Academy of Sleep Medicine; 2014) or DSM-5 (American Psychiatric Association. Diagnostic and Statistical Manual of Mental Disorders Fifth Edition (DSM-5). Arlington, VA: American Psychiatric Association; 2013) criteria, baseline mean sleep latency <25 minutes on the first 4 trials of a 5-trial, 40-minute Maintenance of Wakefulness Test (MWT) and baseline Epworth Sleepiness Scale (ESS) (Johns, Sleep 14(6):540 (1991)) score ≥10, usual nightly total sleep time ≥6 hours, and body mass index between 18 and 45 kg/m^2.
Co-primary endpoints were change from baseline to week 12 in MWT mean sleep latency and ESS score. The key secondary endpoint was the percentage of patients who reported improvement on the Patient Global Impression of Change (PGI-C) (Guy, ECDEU assessment manual for psychopharmacology, revised. US Department of Health, Education, and Welfare publication (ADM 76-338). Rockville, MD: National Institute of Mental Health; 1976) at week 12. Other secondary and exploratory endpoints included changes on function and quality-of-life and changes in the number of cataplexy attacks per week. Safety evaluation included adverse events, laboratory tests, and vital signs.
Efficacy analyses were based on the modified intent-to-treat population (mITT), defined as all patients who were randomized, received at least 1 dose of study drug, and had baseline and at least 1 post-baseline evaluation of both MWT and ESS. MWT and ESS were analyzed using a mixed-effect repeated measures (MMRM) model. PGI-C was analyzed using a chi-square test. A fixed hierarchical testing procedure was used to correct for multiplicity, starting with the highest dose of APC for the co-primary endpoints and the key secondary endpoint; testing proceeded with each subsequent lower doses.

In the case of `NC(=O)OC[C@H](N)Cc1ccccc1` [JZP-110, (R)-2-amino-3-phenylpropyl carbamate], the “MWT mean sleep latency increase from baseline >=5 minutes, % of subjects” value (75 mg, Week 1) is reported as “(34.5) %”, the “MWT mean sleep latency increase from baseline >=5 minutes, n subjects” value (75 mg, Week 1) is reported as 10 and the “MWT mean sleep latency increase from baseline >=10 minutes, % of subjects” value (75 mg, Week 1) is reported as “(24.1) %”. For the same molecule, the “MWT mean sleep latency increase from baseline >=10 minutes, n subjects” value (75 mg, Week 1) was 7, the “MWT mean sleep latency increase from baseline >=15 minutes, % of subjects” value (75 mg, Week 1) was “(17.2) %” and the “MWT mean sleep latency increase from baseline >=15 minutes, n subjects” value (75 mg, Week 1) was 5. For the same molecule, the “MWT mean sleep latency increase from baseline >=20 minutes, % of subjects” value (75 mg, Week 1) was “(10.3) %”, the “MWT mean sleep latency increase from baseline >=20 minutes, n subjects” value (75 mg, Week 1) was 3 and the “MWT mean sleep latency increase from baseline >=25 minutes, % of subjects” value (75 mg, Week 1) was “(3.4) %”. For the same molecule, the “MWT mean sleep latency increase from baseline >=25 minutes, n subjects” value (75 mg, Week 1) was 1, the “MWT mean sleep latency increase from baseline >=30 minutes, n subjects” value (75 mg, Week 1) was 0 and the “MWT mean sleep latency increase from baseline >=5 minutes, % of subjects” value (75 mg, Week 4) was “(42.0) %”. The “MWT mean sleep latency increase from baseline >=5 minutes, n subjects” value (75 mg, Week 4) was 21, the “MWT mean sleep latency increase from baseline >=10 minutes, % of subjects” value (75 mg, Week 4) was “(24.0) %” and the “MWT mean sleep latency increase from baseline >=10 minutes, n subjects” value (75 mg, Week 4) was 12. The “MWT mean sleep latency increase from baseline >=15 minutes, % of subjects” value (75 mg, Week 4) was “(12.0) %”, the “MWT mean sleep latency increase from baseline >=15 minutes, n subjects” value (75 mg, Week 4) was 6 and the “MWT mean sleep latency increase from baseline >=20 minutes, % of subjects” value (75 mg, Week 4) was “(6.0) %”. The “MWT mean sleep latency increase from baseline >=20 minutes, n subjects” value (75 mg, Week 4) was 3, the “MWT mean sleep latency increase from baseline >=25 minutes, n subjects” value (75 mg, Week 4) was 0 and the “MWT mean sleep latency increase from baseline >=30 minutes, n subjects” value (75 mg, Week 4) was 0. For the same molecule, the “MWT mean sleep latency increase from baseline >=5 minutes, % of subjects” value (75 mg, Week 12) was “(41.3) %”, the “MWT mean sleep latency increase from baseline >=5 minutes, n subjects” value (75 mg, Week 12) was 19 and the “MWT mean sleep latency increase from baseline >=10 minutes, % of subjects” value (75 mg, Week 12) was “(19.6) %”. For the same molecule, the “MWT mean sleep latency increase from baseline >=10 minutes, n subjects” value (75 mg, Week 12) was 9, the “MWT mean sleep latency increase from baseline >=15 minutes, % of subjects” value (75 mg, Week 12) was “(15.2) %” and the “MWT mean sleep latency increase from baseline >=15 minutes, n subjects” value (75 mg, Week 12) was 7. The “MWT mean sleep latency increase from baseline >=20 minutes, % of subjects” value (75 mg, Week 12) was “(8.7) %”, the “MWT mean sleep latency increase from baseline >=20 minutes, n subjects” value (75 mg, Week 12) was 4 and the “MWT mean sleep latency increase from baseline >=25 minutes, % of subjects” value (75 mg, Week 12) was “(2.2) %”. For the same molecule, the “MWT mean sleep latency increase from baseline >=25 minutes, n subjects” value (75 mg, Week 12) was 1, the “MWT mean sleep latency increase from baseline >=30 minutes, n subjects” value (75 mg, Week 12) was 0 and the “MWT mean sleep latency increase from baseline >=5 minutes, % of subjects” value (150 mg, Week 1) was “(68.2) %”. The “MWT mean sleep latency increase from baseline >=5 minutes, n subjects” value (150 mg, Week 1) was 15, the “MWT mean sleep latency increase from baseline >=10 minutes, % of subjects” value (150 mg, Week 1) was “(50.0) %” and the “MWT mean sleep latency increase from baseline >=10 minutes, n subjects” value (150 mg, Week 1) was 11. The “MWT mean sleep latency increase from baseline >=15 minutes, % of subjects” value (150 mg, Week 1) was “(22.7) %”, the “MWT mean sleep latency increase from baseline >=15 minutes, n subjects” value (150 mg, Week 1) was 5 and the “MWT mean sleep latency increase from baseline >=20 minutes, % of subjects” value (150 mg, Week 1) was “(9.1) %”. The “MWT mean sleep latency increase from baseline >=20 minutes, n subjects” value (150 mg, Week 1) was 2, the “MWT mean sleep latency increase from baseline >=25 minutes, n subjects” value (150 mg, Week 1) was 0 and the “MWT mean sleep latency increase from baseline >=30 minutes, n subjects” value (150 mg, Week 1) was 0. For the same molecule, the “MWT mean sleep latency increase from baseline >=5 minutes, % of subjects” value (150 mg, Week 4) was “(61.2) %”, the “MWT mean sleep latency increase from baseline >=5 minutes, n subjects” value (150 mg, Week 4) was 30 and the “MWT mean sleep latency increase from baseline >=10 minutes, % of subjects” value (150 mg, Week 4) was “(42.9) %”. The “MWT mean sleep latency increase from baseline >=10 minutes, n subjects” value (150 mg, Week 4) was 21, the “MWT mean sleep latency increase from baseline >=15 minutes, % of subjects” value (150 mg, Week 4) was “(30.6) %” and the “MWT mean sleep latency increase from baseline >=15 minutes, n subjects” value (150 mg, Week 4) was 15. For the same molecule, the “MWT mean sleep latency increase from baseline >=20 minutes, % of subjects” value (150 mg, Week 4) was “(16.3) %”, the “MWT mean sleep latency increase from baseline >=20 minutes, n subjects” value (150 mg, Week 4) was 8 and the “MWT mean sleep latency increase from baseline >=25 minutes, % of subjects” value (150 mg, Week 4) was “(10.2) %”. For the same molecule, the “MWT mean sleep latency increase from baseline >=25 minutes, n subjects” value (150 mg, Week 4) was 5, the “MWT mean sleep latency increase from baseline >=30 minutes, n subjects” value (150 mg, Week 4) was 0 and the “MWT mean sleep latency increase from baseline >=5 minutes, % of subjects” value (150 mg, Week 12) was “(58.0) %”. The “MWT mean sleep latency increase from baseline >=5 minutes, n subjects” value (150 mg, Week 12) was 29, the “MWT mean sleep latency increase from baseline >=10 minutes, % of subjects” value (150 mg, Week 12) was “(48.0) %” and the “MWT mean sleep latency increase from baseline >=10 minutes, n subjects” value (150 mg, Week 12) was 24. For the same molecule, the “MWT mean sleep latency increase from baseline >=15 minutes, % of subjects” value (150 mg, Week 12) was “(36.0) %”, the “MWT mean sleep latency increase from baseline >=15 minutes, n subjects” value (150 mg, Week 12) was 18 and the “MWT mean sleep latency increase from baseline >=20 minutes, % of subjects” value (150 mg, Week 12) was “(18.0) %”. For the same molecule, the “MWT mean sleep latency increase from baseline >=20 minutes, n subjects” value (150 mg, Week 12) was 9, the “MWT mean sleep latency increase from baseline >=25 minutes, % of subjects” value (150 mg, Week 12) was “(8.0) %” and the “MWT mean sleep latency increase from baseline >=25 minutes, n subjects” value (150 mg, Week 12) was 4. The “MWT mean sleep latency increase from baseline >=30 minutes, % of subjects” value (150 mg, Week 12) was “(2.0) %”, the “MWT mean sleep latency increase from baseline >=30 minutes, n subjects” value (150 mg, Week 12) was 1 and the “MWT mean sleep latency increase from baseline >=5 minutes, % of subjects” value (300 mg, Week 1) was “(64.0) %”. The “MWT mean sleep latency increase from baseline >=5 minutes, n subjects” value (300 mg, Week 1) was 16, the “MWT mean sleep latency increase from baseline >=10 minutes, % of subjects” value (300 mg, Week 1) was “(56.0) %” and the “MWT mean sleep latency increase from baseline >=10 minutes, n subjects” value (300 mg, Week 1) was 14. The “MWT mean sleep latency increase from baseline >=15 minutes, % of subjects” value (300 mg, Week 1) was “(44.0) %”.
